Common to all, as to assay: Post-emergence herbicidal activity test (stem and leaf spray, pot culture)
Common to all, as to type: in vivo
Common to all, as to settings: 3 weeks after spraying

For experiment [1], the system named is Abutilon theophrasti. In a few lines: (§1)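 Greenhouse pot-grown weeds (loam, pH 7) sprayed post-emergence at 2- to 3-leaf stage with acetone/Tween 80 formulation plus 1.5 liters/ha methyl oleate, at 10, 5 and 2.5 g/mu. Fresh-weight growth control rated 3 weeks later on 0–5 grade scale.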
The subject of experiment [2] is Amaranthus retroflexus. A digest of the protocol:
as §1

Experiment [3] relates to Echinochloa crusgalli. A digest of the protocol: as §1
Experiment [4] concerns Portulaca oleracea. A digest of the protocol: as §1
The subject of experiment [5] is Setaria viridis. In a few lines:
as §1

Experiment [6] concerns Trifoliumre pensL. A digest of the protocol:
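Rates of 10, 5 and 2.5 g/mu were applied in a single spray-tower treatment to 2–3-leaf plants, thinned to 10 per pot. Formulation: acetone solution, Tween 80, 1.5 L/ha methyl oleate synergist. Weed response assessed after 3 further greenhouse weeks; mean of three experiments.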

Take `O=C1C2=C(CCCC2)C(=O)N1c1cc(OCc2nnc(-c3cccc(I)c3)o2)c(Cl)cc1F` [Compound B11]: the “Post-emergence herbicidal activity, A. theophrasti (grade)” value is 4 (Grade 4: the growth control rate is greater than or equal to 60% and less than 85%) in experiment [1] (dosage 2.5 g/mu); 5 (Grade 5: the growth control rate is greater than or equal to 85%) in experiment [1] (dosage 5 g/mu); 5 (Grade 5: the growth control rate is greater than or equal to 85%) in experiment [1] (dosage 10 g/mu). Besides, the “Post-emergence herbicidal activity, A. retroflexus (grade)” value is 4 (Grade 4: the growth control rate is greater than or equal to 60% and less than 85%) in experiment [2] (dosage 2.5 g/mu); 5 (Grade 5: the growth control rate is greater than or equal to 85%) in experiment [2] (dosage 5 g/mu); 5 (Grade 5: the growth control rate is greater than or equal to 85%) in experiment [2] (dosage 10 g/mu). The “Post-emergence herbicidal activity, E. crusgalli (grade)” value in experiment [3] (dosage 2.5 g/mu) is 1 (Grade 1: the growth control rate is greater than or equal to 5% and less than 20%); in experiment [3] (dosage 5 g/mu) it was 2 (Grade 2: the growth control rate is greater than or equal to 20% and less than 40%); in experiment [3] (dosage 10 g/mu) it was 3 (Grade 3: the growth control rate is greater than or equal to 40% and less than 60%). The “Post-emergence herbicidal activity, P. oleracea (grade)” value in experiment [4] (dosage 2.5 g/mu), in experiment [4] (dosage 5 g/mu) and in experiment [4] (dosage 10 g/mu) was 5 (Grade 5: the growth control rate is greater than or equal to 85%) throughout. The “Post-emergence herbicidal activity, S. viridis (grade)” value in experiment [5] (dosage 2.5 g/mu) is 2 (Grade 2: the growth control rate is greater than or equal to 20% and less than 40%); in experiment [5] (dosage 5 g/mu) it was 3 (Grade 3: the growth control rate is greater than or equal to 40% and less than 60%); in experiment [5] (dosage 10 g/mu), 4 (Grade 4: the growth control rate is greater than or equal to 60% and less than 85%). Also, the “Post-emergence herbicidal activity, Trifoliumre pensL. (grade)” value in experiment [6] (dosage 2.5 g/mu), in experiment [6] (dosage 5 g/mu) and in experiment [6] (dosage 10 g/mu) was 5 (Grade 5: the growth control rate is greater than or equal to 85%) each time.
With `Cc1ccc(-c2noc(COc3cc(N4C(=O)C5=C(CCCC5)C4=O)c(F)cc3Cl)n2)c(Cl)c1` [Compound A15], the “Post-emergence herbicidal activity, A. theophrasti (grade)” value in experiment [1] (dosage 2.5 g/mu), in experiment [1] (dosage 5 g/mu) and in experiment [1] (dosage 10 g/mu) was 5 (Grade 5: the growth control rate is greater than or equal to 85%) in each case. Further, the “Post-emergence herbicidal activity, A. retroflexus (grade)” value in experiment [2] (dosage 2.5 g/mu), in experiment [2] (dosage 5 g/mu) and in experiment [2] (dosage 10 g/mu) was 5 (Grade 5: the growth control rate is greater than or equal to 85%) each time. Also, the “Post-emergence herbicidal activity, E. crusgalli (grade)” value is 1 (Grade 1: the growth control rate is greater than or equal to 5% and less than 20%) in experiment [3] (dosage 2.5 g/mu); 2 (Grade 2: the growth control rate is greater than or equal to 20% and less than 40%) in experiment [3] (dosage 5 g/mu); 3 (Grade 3: the growth control rate is greater than or equal to 40% and less than 60%) in experiment [3] (dosage 10 g/mu). Moreover, the “Post-emergence herbicidal activity, P. oleracea (grade)” value in experiment [4] (dosage 2.5 g/mu), in experiment [4] (dosage 5 g/mu) and in experiment [4] (dosage 10 g/mu) was 5 (Grade 5: the growth control rate is greater than or equal to 85%) each time. The “Post-emergence herbicidal activity, S. viridis (grade)” value in experiment [5] (dosage 2.5 g/mu) is 2 (Grade 2: the growth control rate is greater than or equal to 20% and less than 40%); in experiment [5] (dosage 5 g/mu), 3 (Grade 3: the growth control rate is greater than or equal to 40% and less than 60%); in experiment [5] (dosage 10 g/mu), 4 (Grade 4: the growth control rate is greater than or equal to 60% and less than 85%). Moreover, the “Post-emergence herbicidal activity, Trifoliumre pensL. (grade)” value in experiment [6] (dosage 2.5 g/mu), in experiment [6] (dosage 5 g/mu) and in experiment [6] (dosage 10 g/mu) was 5 (Grade 5: the growth control rate is greater than or equal to 85%) each time.
As for `CC(C)(CCl)C(=O)Nc1cc(N2C(=O)C3=C(CCCC3)C2=O)c(F)cc1Cl` [Compound D4, 3-chloro-N-(2-chloro-5-(1,3-dioxo-1,3,4,5,6,7-hexahydro-2H-isoindole-2-yl)-4-fluorophenyl)-2,2-dimethylpropionamide], in experiment [1] (dosage 10 g/mu), the “Post-emergence herbicidal activity, A. theophrasti (grade)” value is on record as 5 (Grade 5: the growth control rate is greater than or equal to 85%). Also, the “Post-emergence herbicidal activity, A. retroflexus (grade)” value in experiment [2] (dosage 10 g/mu) is reported as 5 (Grade 5: the growth control rate is greater than or equal to 85%). Further, the “Post-emergence herbicidal activity, E. crusgalli (grade)” value in experiment [3] (dosage 10 g/mu) was 3 (Grade 3: the growth control rate is greater than or equal to 40% and less than 60%). In addition, the “Post-emergence herbicidal activity, P. oleracea (grade)” value in experiment [4] (dosage 10 g/mu) is 5 (Grade 5: the growth control rate is greater than or equal to 85%). The “Post-emergence herbicidal activity, S. viridis (grade)” value in experiment [5] (dosage 10 g/mu) is 3 (Grade 3: the growth control rate is greater than or equal to 40% and less than 60%). Also, the “Post-emergence herbicidal activity, Trifoliumre pensL. (grade)” value in experiment [6] (dosage 10 g/mu) is 5 (Grade 5: the growth control rate is greater than or equal to 85%).
Take `CCOC(=O)CC(=O)Nc1cc(N2C(=O)C3=C(CCCC3)C2=O)c(F)cc1Cl` [Compound D6, 3-((2-chloro-5-(1,3-dioxo-1,3,4,5,6,7-hexahydro-2H-isoindole-2-yl)-4-fluorophenyl)amino)-ethyl 3-oxopropanoate]: in experiment [1] (dosage 10 g/mu), the “Post-emergence herbicidal activity, A. theophrasti (grade)” value is listed as 5 (Grade 5: the growth control rate is greater than or equal to 85%). In addition, in experiment [2] (dosage 10 g/mu), the “Post-emergence herbicidal activity, A. retroflexus (grade)” value was 5 (Grade 5: the growth control rate is greater than or equal to 85%). For the same compound, the “Post-emergence herbicidal activity, E. crusgalli (grade)” value in experiment [3] (dosage 10 g/mu) was 3 (Grade 3: the growth control rate is greater than or equal to 40% and less than 60%). Also, in experiment [4] (dosage 10 g/mu), the “Post-emergence herbicidal activity, P. oleracea (grade)” value was 5 (Grade 5: the growth control rate is greater than or equal to 85%). The “Post-emergence herbicidal activity, S. viridis (grade)” value in experiment [5] (dosage 10 g/mu) is 3 (Grade 3: the growth control rate is greater than or equal to 40% and less than 60%). The “Post-emergence herbicidal activity, Trifoliumre pensL. (grade)” value in experiment [6] (dosage 10 g/mu) is listed as 5 (Grade 5: the growth control rate is greater than or equal to 85%).
In the case of `CC(Br)C(=O)Nc1cc(N2C(=O)C3=C(CCCC3)C2=O)c(F)cc1Cl` (stereo not drawn) [Compound D3, 2-bromo-N-(2-chloro-5-(1,3-dioxo-1,3,4,5,6,7-hexahydro-2H-isoindol-2-yl)-4-fluorophenyl)propionamide], the “Post-emergence herbicidal activity, A. theophrasti (grade)” value in experiment [1] (dosage 10 g/mu) is on record as 5 (Grade 5: the growth control rate is greater than or equal to 85%). For the same compound, in experiment [2] (dosage 10 g/mu), the “Post-emergence herbicidal activity, A. retroflexus (grade)” value was 5 (Grade 5: the growth control rate is greater than or equal to 85%). In addition, the “Post-emergence herbicidal activity, E. crusgalli (grade)” value in experiment [3] (dosage 10 g/mu) is 3 (Grade 3: the growth control rate is greater than or equal to 40% and less than 60%). In addition, the “Post-emergence herbicidal activity, P. oleracea (grade)” value in experiment [4] (dosage 10 g/mu) is given as 5 (Grade 5: the growth control rate is greater than or equal to 85%). For the same compound, the “Post-emergence herbicidal activity, S. viridis (grade)” value in experiment [5] (dosage 10 g/mu) was 3 (Grade 3: the growth control rate is greater than or equal to 40% and less than 60%). The “Post-emergence herbicidal activity, Trifoliumre pensL. (grade)” value in experiment [6] (dosage 10 g/mu) is 5 (Grade 5: the growth control rate is greater than or equal to 85%).

These data come from patent publication US20240300932A1, “N-PHENYLIMINE DERIVATIVE AND PREPARATION METHOD AND USE THEREOF” (Guizhou University, priority 2023, published 2024).
